In brackets after ≈: the same amount, converted by molar mass. Like-named read-outs stand apart in the source and are kept apart here.
What was measured:
[1] = tested on: HIV-1 wild-type (R8) virus; experiment: Viral KINetics in Green cells (VIKING) assay, HIV-1 replication in MT4-GFP reporter cells; assay type: cell-based; conditions: MT4-GFP cells, HIV-1 wild-type (R8), read-out: Viking (10% NHS), IC50
How it was run: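 Compounds in 3-fold, 10-point series (typical 4 μM-0.2 nM) in 10% normal human serum received MT4 GFP-reporter T cells pre-infected overnight with wild-type R8 virus (MOI ~0.01). Ratio of GFP-positive cells at 72 vs 48 h defined replication; IC50 from nonlinear 4-parameter dose-response fitting.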

[2] = Aqueous solubility in PBS, pH 7.4; assay type: physicochemical; conditions: pH 7.4 phosphate buffered saline, 24 hours, amorphous or crystalline material; for solubility at 24 h: pH 7.4, aqueous buffer, thermodynamic from solid, read-out: Aqu. Solubility
How it was run: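 Excess solid suspended at 0.5 mg/mL in PBS pH 7.4 and stirred 24 hours. Filtrate (0.45 μm) diluted 1:1 with ACN:H2O and quantified by UPLC against a standard curve; residual solid phase checked by XRPD and PLM.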

[3] = Human immunodeficiency virus 1, 10% normal human serum

solubility at 24 h ([2]; phosphate buffered saline) [µg/mL] | Aqu. Solubility [2] [µg/mL] | SMILES | IC50 [1, 3] [nM] | IC50 ([1]; 10% normal human serum) [nM] | solubility at 24 h [2] [µg/mL]
124 (≈ 286 µM) |  | C#C[C@]1(COC(=O)CC2CCCCC2)O[C@@H](n2ccc3c(N)nc(Cl)nc32)C[C@@H]1O [Example 182] | 3.1 |  | 
< 1 |  | C#C[C@]1(COC(=O)CCCC[C@@H]2SC[C@@H]3NC(=O)N[C@@H]32)O[C@@H](n2ccc3c(N)nc(Cl)nc32)C[C@@H]1OC(=O)CCCC[C@@H]1SC[C@@H]2NC(=O)N[C@@H]21 [Example 74] | 69 |  | 
< 1 |  | C#C[C@]1(CO)O[C@@H](n2ccc3c(N)nc(Cl)nc32)C[C@@H]1OC(=O)CCCCCCCC [Example 55, (2R,3S,5R)-5-(4-amino-2-chloro-7H-pyrrolo[2,3-d]pyrimidin-7-yl)-2-ethynyl-2-(hydroxymethyl)tetrahydrofuran-3-yl nonanoate] | 2.2 |  | 
157 (≈ 375 µM) |  | C#C[C@]1(COC(=O)C2CCCCC2)O[C@@H](n2ccc3c(N)nc(Cl)nc32)C[C@@H]1O [Example 88] | 4.4 |  | 
0.45 (≈ 0.913 µM) |  | C#C[C@]1(COC(=O)OCCCCCCCCCC)O[C@@H](n2ccc3c(N)nc(Cl)nc32)C[C@@H]1O [Example 18, ((2R,3S,5R)-5-(4-amino-2-chloro-7H-pyrrolo[2,3-d]pyrimidin-7-yl)-2-ethynyl-3-hydroxytetrahydrofuran-2-yl)methyl decyl carbonate] | 2.1 |  | 
68 (≈ 164 µM) |  | C#C[C@]1(CO)O[C@@H](n2ccc3c(N)nc(Cl)nc32)C[C@@H]1OC(=O)c1ccccn1 [Example 28, (2R,3S,5R)-5-(4-amino-2-chloro-7H-pyrrolo[2,3-d]pyrimidin-7-yl)-2-ethynyl-2-(hydroxymethyl)tetrahydrofuran-3-yl picolinate] | 4.3 |  | 
34 (≈ 82.4 µM) |  | C#C[C@]1(CO)O[C@@H](n2ccc3c(NC(=O)c4ccccc4)nc(Cl)nc32)C[C@@H]1O [Example 19, N-(2-chloro-7-((2R,4S,5R)-5-ethynyl-4-hydroxy-5-(hydroxymethyl)tetrahydrofuran-2-yl)-7H-pyrrolo[2,3-d]pyrimidin-4-yl)benzamide] | 382 |  | 
< 1 |  | C#C[C@]1(CO)O[C@@H](n2ccc3c(N)nc(Cl)nc32)C[C@@H]1OC(=O)OCCCCCC [Example 61, (2R,3S,5R)-5-(4-amino-2-chloro-7H-pyrrolo[2,3-d]pyrimidin-7-yl)-2-ethynyl-2-(hydroxymethyl)tetrahydrofuran-3-yl hexyl carbonate] | 4.5 |  | 
< 1 |  | C#C[C@]1(CO)O[C@@H](n2ccc3c(N)nc(Cl)nc32)C[C@@H]1OC(=O)CCCCCCCCCCCCC [Example 26, (2R,3S,5R)-5-(4-amino-2-chloro-7H-pyrrolo[2,3-d]pyrimidin-7-yl)-2-ethynyl-2-(hydroxymethyl)tetrahydrofuran-3-yl tetradecanoate] | 7 |  | 
2 (≈ 4.07 µM) |  | C#C[C@]1(CO)O[C@@H](n2ccc3c(N)nc(Cl)nc32)C[C@@H]1OC(=O)CCCCCCCCCCC [Example 25, (2R,3S,5R)-5-(4-amino-2-chloro-7H-pyrrolo[2,3-d]pyrimidin-7-yl)-2-ethynyl-2-(hydroxymethyl)tetrahydrofuran-3-yl dodecanoate] | 3.5 |  | 
7 (≈ 15.5 µM) |  | C#C[C@]1(COC(=O)OCCCCCCC)O[C@@H](n2ccc3c(N)nc(Cl)nc32)C[C@@H]1O [Example 121] | 3.1 |  | 
51 (≈ 119 µM) |  | C#C[C@]1(CO)O[C@@H](n2ccc3c(NC(=O)Cc4ccccc4)nc(Cl)nc32)C[C@@H]1O [Example 199] | 230 |  | 
229 (≈ 493 µM) |  | C#C[C@]1(COC(=O)OCc2oc(=O)oc2C)O[C@@H](n2ccc3c(N)nc(Cl)nc32)C[C@@H]1O [Example 143] | 2.9 |  | 
19 (≈ 43.1 µM) |  | C#C[C@]1(COC(=O)[C@@H](C)c2ccccc2)O[C@@H](n2ccc3c(N)nc(Cl)nc32)C[C@@H]1O [Example 101] | 3.4 |  | 
 | 107 | C#C[C@]1(COC(=O)OCc2ccccc2)O[C@@H](n2ccc3c(N)nc(Cl)nc32)C[C@@H]1O [Example 122] |  | 4 | 
< 1 |  | C#C[C@]1(COC(=O)OCCCC)O[C@@H](n2ccc3c(N)nc(Cl)nc32)C[C@@H]1OC(=O)OCC [Example 216] | 21 |  | 
24 (≈ 47.5 µM) |  | C#C[C@]1(COC(=O)Cc2ccc(Br)cc2)O[C@@H](n2ccc3c(N)nc(Cl)nc32)C[C@@H]1O [Example 73, ((2R,3S,5R)-5-(4-amino-2-chloro-7H-pyrrolo[2,3-d]pyrimidin-7-yl)-2-ethynyl-3-hydroxytetrahydrofuran-2-yl)methyl 2-(4-bromophenyl)acetate] | 3.2 |  | 

solubility at 24 h ([2]; phosphate buffered saline) [µg/mL] | Aqu. Solubility [2] [µg/mL] | SMILES | IC50 [1, 3] [nM] | IC50 ([1]; 10% normal human serum) [nM] | solubility at 24 h [2] [µg/mL]
72 (≈ 163 µM) |  | C#C[C@]1(COC(=O)[C@H](C)c2ccccc2)O[C@@H](n2ccc3c(N)nc(Cl)nc32)C[C@@H]1O [Example 100] | 2.5 |  | 
2.4 (≈ 5.18 µM) |  | C#C[C@]1(COC(=O)CCCCC)O[C@@H](n2ccc3c(N)nc(Cl)nc32)C[C@@H]1OC(=O)CC [Example 188] | 17 |  | 
7 (≈ 15.1 µM) |  | C#C[C@]1(COC(=O)CCCC)O[C@@H](n2ccc3c(N)nc(Cl)nc32)C[C@@H]1OC(=O)OCC [Example 146] | 19 |  | 
< 1 |  | C#C[C@]1(COC(=O)OCCCCCCCCCCCC)O[C@@H](n2ccc3c(N)nc(Cl)nc32)C[C@@H]1O [Example 117] | 4 |  | 
38 (≈ 71 µM) |  | C#C[C@]1(COC(=O)CCCC[C@@H]2SC[C@@H]3NC(=O)N[C@@H]32)O[C@@H](n2ccc3c(N)nc(Cl)nc32)C[C@@H]1O [Example 145] | 3.2 |  | 
257 (≈ 733 µM) |  | C#C[C@]1(CO)O[C@@H](n2ccc3c(N)nc(Cl)nc32)C[C@@H]1OC(C)=O [Example 180] | 27 |  | 
< 1 |  | C#C[C@]1(COC(=O)OCCCCCCCC)O[C@@H](n2ccc3c(N)nc(Cl)nc32)C[C@@H]1O [Example 39, ((2R,3S,5R)-5-(4-amino-2-chloro-7H-pyrrolo[2,3-d]pyrimidin-7-yl)-2-ethynyl-3-hydroxytetrahydrofuran-2-yl)methyl octyl carbonate] | 3 |  | 
1.9 (≈ 4.49 µM) |  | C#C[C@]1(CO)O[C@@H](n2ccc3c(N)nc(Cl)nc32)C[C@@H]1OC(=O)OCCCCC [Example 13, (2R,3S,5R)-5-(4-amino-2-chloro-7H-pyrrolo[2,3-d]pyrimidin-7-yl)-2-ethynyl-2-(hydroxymethyl)tetrahydrofuran-3-yl pentyl carbonate] | 2.2 |  | 
41 (≈ 88.9 µM) |  | C#C[C@]1(COC(=O)Cc2ccc(Cl)cc2)O[C@@H](n2ccc3c(N)nc(Cl)nc32)C[C@@H]1O [Example 33, ((2R,3S,5R)-5-(4-amino-2-chloro-7H-pyrrolo[2,3-d]pyrimidin-7-yl)-2-ethynyl-3-hydroxytetrahydrofuran-2-yl)methyl 2-(4-chlorophenyl)acetate] | 2.4 |  | 
16 (≈ 39.3 µM) |  | C#C[C@]1(CO)O[C@@H](n2ccc3c(N)nc(Cl)nc32)C[C@@H]1OC(=O)CCCCC [Example 59, (2R,3S,5R)-5-(4-amino-2-chloro-7H-pyrrolo[2,3-d]pyrimidin-7-yl)-2-ethynyl-2-(hydroxymethyl)tetrahydrofuran-3-yl hexanoate] | 2.8 |  | 
< 1 |  | C#C[C@]1(CO)O[C@@H](n2ccc3c(N)nc(Cl)nc32)C[C@@H]1OC(=O)CCCCCCCCC [Example 4, (2R,3S,5R)-5-(4-amino-2-chloro-7H-pyrrolo[2,3-d]pyrimidin-7-yl)-2-ethynyl-2-(hydroxymethyl)tetrahydrofuran-3-yl decanoate] | 2.9 |  | 
 |  | C#C[C@]1(COP(=O)(N[C@@H](C)C(=O)OC(C)C)Oc2ccc3ccccc3c2)O[C@@H](n2ccc3c(N)nc(Cl)nc32)C[C@@H]1O (stereo partly shown) [Example 75] | 47 |  | 30 (≈ 47.8 µM)
307 (≈ 696 µM) |  | C#C[C@]1(CO)O[C@@H](n2ccc3c(NC(=O)CCc4ccccc4)nc(Cl)nc32)C[C@@H]1O [Example 200] | 155 |  | 
< 1 |  | C#C[C@]1(COC(=O)OCc2ccccc2)O[C@@H](n2ccc3c(N)nc(Cl)nc32)C[C@@H]1OC(=O)OCc1ccccc1 [Example 214] | 4.7 |  | 
< 1 |  | C#C[C@]1(COC(=O)OC(CC)CC)O[C@@H](n2ccc3c(N)nc(Cl)nc32)C[C@@H]1OC(=O)OC(CC)CC [Example 142] | 1760 |  | 
11 (≈ 24.7 µM) |  | C#C[C@]1(CO)O[C@@H](n2ccc3c(N)nc(Cl)nc32)C[C@@H]1OC(=O)Cc1ccc(F)cc1 [Example 31, (2R,3S,5R)-5-(4-amino-2-chloro-7H-pyrrolo[2,3-d]pyrimidin-7-yl)-2-ethynyl-2-(hydroxymethyl)tetrahydrofuran-3-yl 2-(4-fluorophenyl)acetate] | 4.6 |  | 
19 (≈ 29.7 µM) |  | C#C[C@]1(COC(=O)OCc2ccn(C)c(=O)c2)O[C@@H](n2ccc3c(N)nc(Cl)nc32)C[C@@H]1OC(=O)OCc1ccn(C)c(=O)c1 [Example 226] | 13 |  | 

SMILES | solubility at 24 h ([2]; phosphate buffered saline) [µg/mL] | Aqu. Solubility [2] [µg/mL] | IC50 [1, 3] [nM] | IC50 ([1]; 10% normal human serum) [nM] | solubility at 24 h [2] [µg/mL]
C#C[C@]1(COC(=O)Cc2ccc(F)cc2)O[C@@H](n2ccc3c(N)nc(Cl)nc32)C[C@@H]1OC(=O)Cc1ccc(F)cc1 [Example 29, (2R,3S,5R)-5-(4-amino-2-chloro-7H-pyrrolo[2,3-d]pyrimidin-7-yl)-2-ethynyl-2-((2-(4-fluorophenyl)acetoxy)methyl)tetrahydrofuran-3-yl 2-(4-fluorophenyl)acetate] | < 1 |  | 5.8 |  | 
